Assays:
[1] = species: Homo sapiens; assay: Reduction in hBA1c in type 2 diabetic patient; assay type: functional; set-up: scale not given: the % may be the effect or the level left
[2] = species: Homo sapiens; assay: Toxicity in type 2 diabetic patient assessed as increase in LDL-cholesterol level at 6 mg/day relative to placebo-control; assay type: organism-based; settings: in vivo
[3] = species: Homo sapiens; assay: Toxicity in type 2 diabetic patient assessed as increase in circulating adrenal androgen at 6 mg/day relative to placebo-control; assay type: organism-based; settings: in vivo
[4] = system: Mus musculus; assay: In vivo inhibition of 11beta-HSD1 in mouse assessed as inhibition of cortisone to cortisol conversion at 5 mg/kg relative to control; assay type: functional
[5] = system: Mus musculus; assay: In vivo inhibition of 11beta-HSD1 in mouse assessed as inhibition of cortisone to cortisol conversion at 100 mg/kg relative to control; assay type: functional
[6] = Inhibition of N-terminal His-tagged full length dog 11beta-HSD1 assessed as inhibition of cortisone to cortisol conversion preincubated for 25 mins measured after 2 hrs by HTRF assay; set-up: species or system Canis lupus familiaris
[7] = species: Homo sapiens; assay: Reduction in HDL-cholesterol in overweight/obese patient with hypertension at 7 mg relative to control; assay type: functional; set-up: scale not given: the % may be the effect or the level left
[8] = species: Homo sapiens; assay: Reduction in body weight in overweight/obese patient with hypertension at 7 mg relative to control; assay type: functional
[9] = species: Homo sapiens; assay: Toxicity in overweight/obese patient with hypertension assessed as increase in adrenal androgen level at 7 mg/day relative to control; assay type: organism-based; settings: in vivo
[10] = species: Homo sapiens; assay: Reduction in LDL-cholesterol in overweight/obese patient with hypertension at 7 mg relative to control; assay type: functional; set-up: scale not given: the % may be the effect or the level left
[11] = Oral bioavailability in rat; assay type: ADME, organism-based; settings: in vivo
[12] = Clearance in rat; assay type: ADME, organism-based; settings: in vivo
[13] = system: Mus musculus; assay: Ex vivo inhibition of 11beta-HSD1 in mouse fat at 20 mg/kg relative to control; assay type: functional
[14] = Inhibition of cytochrome P450 (unknown origin); assay type: ADME, Homo sapiens
[15] = molecular target: T1, 11-beta-hydroxysteroid dehydrogenase type 2 (Homo sapiens, UniProt P80365); assay: Inhibition of human 11beta-HSD2
T1 sequence (P80365 whole entry): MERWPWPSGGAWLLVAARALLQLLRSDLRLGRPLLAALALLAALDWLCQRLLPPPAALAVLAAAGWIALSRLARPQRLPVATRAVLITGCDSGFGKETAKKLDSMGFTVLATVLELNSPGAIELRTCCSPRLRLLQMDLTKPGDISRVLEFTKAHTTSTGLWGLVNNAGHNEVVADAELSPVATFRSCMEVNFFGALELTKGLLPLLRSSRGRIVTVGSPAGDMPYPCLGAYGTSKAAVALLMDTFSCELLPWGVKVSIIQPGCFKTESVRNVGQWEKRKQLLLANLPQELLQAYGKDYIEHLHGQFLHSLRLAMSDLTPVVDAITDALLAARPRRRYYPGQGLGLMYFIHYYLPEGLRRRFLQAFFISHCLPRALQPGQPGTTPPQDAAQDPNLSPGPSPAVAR

[16] = Oral bioavailability in mouse; assay type: ADME, organism-based; settings: in vivo
[17] = molecular target: T2, 11-beta-hydroxysteroid dehydrogenase 1 (Mus musculus, UniProt P50172); assay: Inhibition of mouse 11beta-HSD1
T2 sequence (P50172 whole entry): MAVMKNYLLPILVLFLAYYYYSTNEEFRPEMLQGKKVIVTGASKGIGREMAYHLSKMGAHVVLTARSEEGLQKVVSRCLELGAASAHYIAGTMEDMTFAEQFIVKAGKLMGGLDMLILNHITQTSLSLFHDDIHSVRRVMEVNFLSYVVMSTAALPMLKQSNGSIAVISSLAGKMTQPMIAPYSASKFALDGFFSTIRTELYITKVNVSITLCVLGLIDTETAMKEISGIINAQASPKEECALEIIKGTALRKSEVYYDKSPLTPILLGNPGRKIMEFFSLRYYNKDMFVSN

[18] = molecular target: 11-beta-hydroxysteroid dehydrogenase 1 (Rattus norvegicus, UniProt P16232); assay: Inhibition of rat 11beta-HSD1 expressed in HEK293 cells; assay type: cell-based
11-beta-hydroxysteroid dehydrogenase 1 (Rattus norvegicus, UniProt P16232), sequence (P16232 whole entry): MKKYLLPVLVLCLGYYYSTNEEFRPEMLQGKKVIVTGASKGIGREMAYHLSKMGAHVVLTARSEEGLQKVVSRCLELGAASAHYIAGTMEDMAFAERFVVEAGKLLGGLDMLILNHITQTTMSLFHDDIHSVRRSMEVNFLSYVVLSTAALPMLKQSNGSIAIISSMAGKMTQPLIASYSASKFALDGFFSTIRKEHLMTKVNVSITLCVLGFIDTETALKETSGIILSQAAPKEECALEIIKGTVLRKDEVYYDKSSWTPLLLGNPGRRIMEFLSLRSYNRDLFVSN

[19] = molecular target: T2, 11-beta-hydroxysteroid dehydrogenase 1; assay: Inhibition of mouse 11beta-HSD1 expressed in HEK293 cells; assay type: cell-based
[20] = Drug excretion in healthy human urine; assay type: ADME, tissue-based; settings: read-out: Drug excretion
[21] = Elimination half life in healthy human by 14 day test; assay type: ADME, organism-based; settings: in vivo, read-out: beta t1/2 (converted)
[22] = system: Cynomolgus monkey; assay: Reduction in plasma insulin level in cynomolgus monkey at 0.1 to 3 mg/kg; assay type: functional, Macaca fascicularis; settings: dose mg/kg 0.1-3
[23] = species: Homo sapiens; assay: Inhibition of prednisone to prednisolone conversion in healthy human at 15 mg qd relative to control; assay type: functional
[24] = system: Cynomolgus monkey; assay: In vivo inhibition of 11beta-HSD1 in cynomolgus monkey assessed as inhibition of prednisone to prednisolone conversion at 0.1 to 3 mg/kg relative to control; assay type: functional, Macaca fascicularis; settings: dose mg/kg 0.1-3
[25] = Clearance in healthy human by 14 day test; assay type: ADME, organism-based; settings: in vivo
[26] = species: Homo sapiens; assay: Reduction in 5alpha/5beta-tetrahydrocortisol to tetrahydrocortisone ratio in healthy human at 15 mg qd relative to control; assay type: functional
[27] = Tmax in healthy human by 14 day test; assay type: ADME, organism-based; settings: in vivo
[28] = system: Mus musculus; assay: In vivo inhibition of 11beta-HSD1 in mouse assessed as inhibition of [3H]cortisone to [3H]cortisol conversion at 10 mg/kg, po measured after 1 hr relative to control; assay type: functional
[29] = system: Mus musculus; assay: In vivo inhibition of 11beta-HSD1 in mouse assessed as inhibition of [3H]cortisone to [3H]cortisol conversion at 10 mg/kg, po measured after 4 hrs relative to control; assay type: functional
[30] = molecular target: Voltage-gated inwardly rectifying potassium channel KCNH2 (Homo sapiens, UniProt Q12809); assay: Inhibition of human ERG
Voltage-gated inwardly rectifying potassium channel KCNH2, sequence (Q12809 whole entry): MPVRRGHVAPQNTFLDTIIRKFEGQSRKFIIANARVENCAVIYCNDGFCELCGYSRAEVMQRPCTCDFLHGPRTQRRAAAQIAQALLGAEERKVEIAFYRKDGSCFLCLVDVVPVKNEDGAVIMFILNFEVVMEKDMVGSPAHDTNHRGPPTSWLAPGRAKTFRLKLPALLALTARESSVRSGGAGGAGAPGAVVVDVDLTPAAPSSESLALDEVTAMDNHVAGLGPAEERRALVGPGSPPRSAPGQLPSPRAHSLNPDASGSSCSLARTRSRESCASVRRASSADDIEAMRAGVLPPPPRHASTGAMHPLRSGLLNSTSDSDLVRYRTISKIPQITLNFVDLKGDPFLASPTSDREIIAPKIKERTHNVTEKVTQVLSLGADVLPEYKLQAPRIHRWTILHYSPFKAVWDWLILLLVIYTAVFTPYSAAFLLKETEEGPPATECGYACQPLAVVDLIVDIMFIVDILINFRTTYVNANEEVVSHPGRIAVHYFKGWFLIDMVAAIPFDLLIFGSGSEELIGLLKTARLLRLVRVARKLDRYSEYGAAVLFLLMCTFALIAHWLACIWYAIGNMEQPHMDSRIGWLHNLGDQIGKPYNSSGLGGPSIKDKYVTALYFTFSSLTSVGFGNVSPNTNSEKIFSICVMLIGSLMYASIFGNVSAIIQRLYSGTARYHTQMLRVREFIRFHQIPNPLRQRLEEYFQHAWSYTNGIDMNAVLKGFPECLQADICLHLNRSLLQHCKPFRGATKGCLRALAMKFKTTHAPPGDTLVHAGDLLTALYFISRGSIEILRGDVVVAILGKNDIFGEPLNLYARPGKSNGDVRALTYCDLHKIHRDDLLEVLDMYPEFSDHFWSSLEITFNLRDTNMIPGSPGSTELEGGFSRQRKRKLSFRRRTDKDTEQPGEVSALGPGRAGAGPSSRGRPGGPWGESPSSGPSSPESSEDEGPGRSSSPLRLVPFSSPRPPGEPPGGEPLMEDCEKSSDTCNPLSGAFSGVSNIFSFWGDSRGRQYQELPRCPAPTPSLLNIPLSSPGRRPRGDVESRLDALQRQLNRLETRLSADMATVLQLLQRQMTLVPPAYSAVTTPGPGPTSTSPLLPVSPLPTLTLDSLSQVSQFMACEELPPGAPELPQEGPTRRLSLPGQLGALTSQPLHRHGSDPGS

[31] = system: Mus musculus; assay: Reduction in plasma glucose level in ob/ob mouse at 200 mg/kg/day for 5 days measured after 5 days; assay type: functional; set-up: scale not given: the % may be the effect or the level left
[32] = species: Mus musculus; assay: Reduction in liver corticosterone level in adrenalectomized mouse model; assay type: functional
[33] = Clearance in mouse; assay type: ADME, organism-based; settings: in vivo
[34] = system: Mus musculus; assay: Reduction in fasting blood glucose level in diet-induced obese mouse model at 20 mg/kg bid for 11 days relative to vehicle-treated control; assay type: functional; set-up: scale not given: the % may be the effect or the level left
[35] = system: Mus musculus; assay: Reduction in aortic total cholesterol accumulation in high fat diet-fed mouse model at 10 mg/kg/day for 8 weeks relative to vehicle-treated control; set-up: scale not given: the % may be the effect or the level left
[36] = system: Mus musculus; assay: Reduction in body weight in diet-induced obese mouse model at 20 mg/kg bid for 11 days relative to vehicle-treated control; assay type: functional; set-up: scale not given: the % may be the effect or the level left
[37] = molecular target: 11-beta-hydroxysteroid dehydrogenase 1 (Homo sapiens, UniProt P28845); assay: Inhibition of human 11beta-HSD1
11-beta-hydroxysteroid dehydrogenase 1 (Homo sapiens, UniProt P28845), sequence (P28845 whole entry): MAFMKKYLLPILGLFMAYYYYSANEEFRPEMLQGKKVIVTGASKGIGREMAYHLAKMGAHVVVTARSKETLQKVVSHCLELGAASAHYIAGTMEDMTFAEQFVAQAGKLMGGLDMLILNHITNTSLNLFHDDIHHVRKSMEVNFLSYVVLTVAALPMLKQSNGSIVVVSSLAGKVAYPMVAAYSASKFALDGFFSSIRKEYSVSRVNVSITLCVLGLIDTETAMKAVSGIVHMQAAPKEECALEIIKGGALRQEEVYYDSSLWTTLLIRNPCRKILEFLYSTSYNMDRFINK

[38] = system: Mus musculus; assay: Reduction in fasting blood glucose level in high fat diet-fed STZ-induced diabetes mouse model at 30 mg/kg bid for 9 days relative to vehicle-treated control; assay type: functional; set-up: scale not given: the % may be the effect or the level left
[39] = molecular target: T3, 11-beta-hydroxysteroid dehydrogenase type 2 (Mus musculus, UniProt P51661); assay: Inhibition of mouse 11beta-HSD2
T3 sequence (P51661 whole entry): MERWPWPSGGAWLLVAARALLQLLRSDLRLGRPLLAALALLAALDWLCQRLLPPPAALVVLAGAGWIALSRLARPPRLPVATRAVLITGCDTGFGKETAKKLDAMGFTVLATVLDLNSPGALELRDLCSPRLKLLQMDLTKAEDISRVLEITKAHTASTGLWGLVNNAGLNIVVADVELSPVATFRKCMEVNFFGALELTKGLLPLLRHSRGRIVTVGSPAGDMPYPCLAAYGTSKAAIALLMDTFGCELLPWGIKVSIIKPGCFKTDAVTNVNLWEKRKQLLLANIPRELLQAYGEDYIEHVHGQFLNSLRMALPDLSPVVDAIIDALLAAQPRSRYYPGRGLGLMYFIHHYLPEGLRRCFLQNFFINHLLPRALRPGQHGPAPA

[40] = system: Mus musculus; assay: Reduction in cumulative food intake in diet-induced obese mouse model at 20 mg/kg bid for 11 days relative to vehicle-treated control; assay type: functional; set-up: scale not given: the % may be the effect or the level left
[41] = system: Mus musculus; assay: Reduction in postprandial blood glucose level in high fat diet-fed STZ-induced diabetes mouse model at 30 mg/kg bid for 9 days relative to vehicle-treated control; assay type: functional; set-up: scale not given: the % may be the effect or the level left

## F[C@H]1C[C@](c2ccc(Cl)cc2)(c2nnc(C3CC3)n2C2CC2)C1
[1]
  Activity: -0.3%
[2]
  Activity: 10.4%
[3]
  Activity: 20%

## CCN1CCC[C@@H]1C(=O)NC1C2CC3CC(C2)CC1C3 (stereo partly specified)
[4]
  %max: 50%
[5]
  %max: 82%

## CSc1nc(N2C[C@@H]3[C@H](C2)[C@H]3C(=O)O)ccc1C(=O)NC12CC3CC(CC(C3)C1)C2
[6]
  IC50: 0.12 µM

## CCS(=O)(=O)CCCC12CCC(c3nnc(-c4ccccc4C(F)(F)F)n3C)(CC1)CC2 [MK-0736]
[7]
  Activity: -6.3%
[8]
  Activity: -1.4 kg
[9]
  fold change (FC): 2
[10]
  Activity: -12.3%

## CC1CN(CC(=O)N[C@H]2C3CC4CC2C[C@](C(N)=O)(C4)C3)S(=O)(=O)N(c2c(Cl)cc(Cl)cc2Cl)C1 (stereo partly specified)
[11]
  bioavailability: 69%
[12]
  clearance: 11.7 mL/min/kg
[13]
  inhibition in vivo at 20 mg/kg: 96%
[14]
  IC50: > 100 µM

## CCN(CC)C(=O)Cc1csc(NS(=O)(=O)c2cccc(Cl)c2C)n1
[15]
  IC50: > 10 µM

## Cc1c(Cl)cccc1S(=O)(=O)Nc1nc(CC(=O)N2CCN(C)CC2)cs1
[15]
  IC50: > 10 µM
[16]
  bioavailability: 21%

## Cc1c(Cl)cccc1S(=O)(=O)N1CCC[C@H](C(=O)N[C@H]2C[C@@H]3CC[C@@]2(C)C3(C)C)C1
[17]
  IC50: 0.018 µM

## CS(=O)(=O)NCCC(=O)N1CCC(c2cc(C(=O)N3CCC[C@H]4CCCC[C@H]43)cs2)CC1
[18]
  IC50: 0.287 µM
[19]
  IC50: 0.528 µM

## N#Cc1ccc(-c2ccc(S(=O)(=O)Nc3cccc(N)n3)cc2)cc1
[20]
  dose excreted: < 1%
[21]
  half-life: 30 h
[22]
  %max: 60%
[23]
  %max: 37%
[24]
  %max: 87%
[25]
  clearance: 16.7 mL/min
[26]
  %max: 26%
[27]
  Tmax: 1 h

## Cn1c(-c2ccccc2)nnc1C12CC3CC(CC(C3)C1)C2 [FIG 1]
[28]
  inhibition in vivo at 10 mg/kg: 85%
[29]
  inhibition in vivo at 10 mg/kg: 47%

## CN(C(=O)c1csc(CNS(=O)(=O)c2cccc(Cl)c2)n1)C1CCCCCC1
[17]
  IC50: 0.307 µM

## O=C(CN1C(C(=O)c2ccccc2)=C(O)c2ccccc2S1(=O)=O)c1ccccc1
[30]
  IC50: > 100 µM
[31]
  Activity: -27%

## COc1cc(C(=O)Nc2ccc(C(=O)N3CCCCC3)c(O)c2)cc(OC)c1OC
[32]
  inhibition (INH): 73%

## Cc1c(Cl)cccc1S(=O)(=O)N1CCCC[C@@H]1C(=O)N[C@H]1C2CC3CC1C[C@](O)(C3)C2
[33]
  clearance: 130 mL/min/kg
[16]
  bioavailability: 3%
[17]
  IC50: 0.015 µM

## CC1(C)C(=O)N(c2cccc(S(C)(=O)=O)c2)C1c1cccc2nccnc12 (stereo unspecified)
[33]
  clearance: 42 mL/min/kg
[16]
  bioavailability: 22%
[17]
  IC50: 0.35 µM

## C1CCc2nnc(C34CC5CC(CC(C5)C3)C4)n2CC1
[15]
  IC50: > 3 µM
[34]
  Activity: 15%
[35]
  Activity: 84%
[28]
  inhibition in vivo at 10 mg/kg: 59%
[36]
  Activity: 7%
[37]
  IC50: 0.008 µM
[38]
  Activity: 37%
[39]
  IC50: > 10 µM
[40]
  Activity: 12%
[29]
  inhibition in vivo at 10 mg/kg: 17%
[41]
  Activity: 37%
